Source: paper PMC8213057, “Targeting ALK2: An Open Science Approach to Developing Therapeutics for the Treatment of Diffuse Intrinsic Pontine Glioma” (Journal of Medicinal Chemistry, 2020)

Columns and labels:
EPHA3 = biological target: T1, EPHA3 (Homo sapiens, UniProt P29320); test: biochemical; settings: read-out: % enzyme activity, 1 μM; Run 1, Run 2
T1 sequence (P29320 21-983): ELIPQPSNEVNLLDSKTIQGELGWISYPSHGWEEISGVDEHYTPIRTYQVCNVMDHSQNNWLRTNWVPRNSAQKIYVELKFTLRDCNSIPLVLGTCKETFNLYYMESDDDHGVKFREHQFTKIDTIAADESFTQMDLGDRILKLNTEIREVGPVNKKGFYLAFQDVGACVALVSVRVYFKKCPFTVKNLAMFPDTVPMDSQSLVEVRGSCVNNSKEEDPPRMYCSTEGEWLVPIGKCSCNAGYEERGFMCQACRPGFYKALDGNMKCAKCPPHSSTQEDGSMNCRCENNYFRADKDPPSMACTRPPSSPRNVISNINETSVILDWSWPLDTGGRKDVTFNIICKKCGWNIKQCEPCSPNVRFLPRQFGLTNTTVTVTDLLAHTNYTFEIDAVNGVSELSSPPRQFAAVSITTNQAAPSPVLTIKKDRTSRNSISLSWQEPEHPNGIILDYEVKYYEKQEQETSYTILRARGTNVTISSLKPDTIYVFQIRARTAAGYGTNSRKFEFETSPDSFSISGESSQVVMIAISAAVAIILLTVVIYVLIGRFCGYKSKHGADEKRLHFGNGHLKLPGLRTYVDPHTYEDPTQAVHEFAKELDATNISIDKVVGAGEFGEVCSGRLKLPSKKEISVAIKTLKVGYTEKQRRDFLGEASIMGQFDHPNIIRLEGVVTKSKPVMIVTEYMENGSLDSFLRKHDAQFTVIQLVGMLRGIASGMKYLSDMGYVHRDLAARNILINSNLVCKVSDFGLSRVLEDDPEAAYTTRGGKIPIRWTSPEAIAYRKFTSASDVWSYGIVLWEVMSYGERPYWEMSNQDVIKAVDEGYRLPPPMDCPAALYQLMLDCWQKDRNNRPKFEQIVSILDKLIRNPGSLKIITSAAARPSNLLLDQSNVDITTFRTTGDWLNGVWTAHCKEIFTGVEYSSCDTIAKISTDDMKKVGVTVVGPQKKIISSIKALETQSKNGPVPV

CK1g2 = CK1g2 (Homo sapiens, UniProt P78368); settings: 1 μM; Run 1, Run 2
Sequence of CK1g2 (P78368 whole entry): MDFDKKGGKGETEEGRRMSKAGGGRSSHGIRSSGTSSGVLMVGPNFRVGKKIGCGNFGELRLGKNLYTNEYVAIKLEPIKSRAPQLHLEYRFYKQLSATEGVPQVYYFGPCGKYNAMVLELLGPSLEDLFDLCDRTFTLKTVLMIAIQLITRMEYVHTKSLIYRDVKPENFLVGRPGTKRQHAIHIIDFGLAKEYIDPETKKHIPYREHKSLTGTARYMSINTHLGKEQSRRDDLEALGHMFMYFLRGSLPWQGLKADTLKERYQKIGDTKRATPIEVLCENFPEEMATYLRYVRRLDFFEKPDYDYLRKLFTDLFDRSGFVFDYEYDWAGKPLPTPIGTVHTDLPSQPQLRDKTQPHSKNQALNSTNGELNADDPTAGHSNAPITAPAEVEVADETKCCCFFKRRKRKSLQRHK

PKCnu/PRKD3 = biological target: T2, PKCnu/PRKD3 (Homo sapiens, UniProt O94806); test: biochemical; settings: read-out: % enzyme activity, 1 μM; Run 1, Run 2
T2 sequence (O94806 1-890): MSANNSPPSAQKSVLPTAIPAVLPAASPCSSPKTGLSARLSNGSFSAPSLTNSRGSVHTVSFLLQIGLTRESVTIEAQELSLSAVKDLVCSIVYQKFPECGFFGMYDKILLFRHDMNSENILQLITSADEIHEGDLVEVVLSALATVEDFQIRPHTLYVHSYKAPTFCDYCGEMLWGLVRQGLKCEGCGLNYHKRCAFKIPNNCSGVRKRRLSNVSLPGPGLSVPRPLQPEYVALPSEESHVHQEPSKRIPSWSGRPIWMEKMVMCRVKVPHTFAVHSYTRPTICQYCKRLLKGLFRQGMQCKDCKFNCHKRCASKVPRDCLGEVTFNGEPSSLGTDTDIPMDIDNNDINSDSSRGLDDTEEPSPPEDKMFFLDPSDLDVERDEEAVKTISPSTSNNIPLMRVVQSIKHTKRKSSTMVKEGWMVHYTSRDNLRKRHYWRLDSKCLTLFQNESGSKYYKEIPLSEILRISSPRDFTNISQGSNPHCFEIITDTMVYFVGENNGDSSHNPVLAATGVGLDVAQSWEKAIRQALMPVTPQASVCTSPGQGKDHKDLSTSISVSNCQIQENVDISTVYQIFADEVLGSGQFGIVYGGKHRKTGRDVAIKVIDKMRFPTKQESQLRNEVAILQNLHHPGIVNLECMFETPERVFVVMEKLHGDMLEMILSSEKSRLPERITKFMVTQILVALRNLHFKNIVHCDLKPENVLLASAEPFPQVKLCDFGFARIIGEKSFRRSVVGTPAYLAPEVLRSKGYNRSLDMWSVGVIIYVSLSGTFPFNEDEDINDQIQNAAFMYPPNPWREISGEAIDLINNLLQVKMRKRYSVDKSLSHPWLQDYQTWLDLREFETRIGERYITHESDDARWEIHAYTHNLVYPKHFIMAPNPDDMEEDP

EPHB3 = biological target: T3, EPHB3 (Homo sapiens, UniProt P54753); test: biochemical; settings: read-out: % enzyme activity, 1 μM; Run 1, Run 2
T3 sequence (P54753 34-998): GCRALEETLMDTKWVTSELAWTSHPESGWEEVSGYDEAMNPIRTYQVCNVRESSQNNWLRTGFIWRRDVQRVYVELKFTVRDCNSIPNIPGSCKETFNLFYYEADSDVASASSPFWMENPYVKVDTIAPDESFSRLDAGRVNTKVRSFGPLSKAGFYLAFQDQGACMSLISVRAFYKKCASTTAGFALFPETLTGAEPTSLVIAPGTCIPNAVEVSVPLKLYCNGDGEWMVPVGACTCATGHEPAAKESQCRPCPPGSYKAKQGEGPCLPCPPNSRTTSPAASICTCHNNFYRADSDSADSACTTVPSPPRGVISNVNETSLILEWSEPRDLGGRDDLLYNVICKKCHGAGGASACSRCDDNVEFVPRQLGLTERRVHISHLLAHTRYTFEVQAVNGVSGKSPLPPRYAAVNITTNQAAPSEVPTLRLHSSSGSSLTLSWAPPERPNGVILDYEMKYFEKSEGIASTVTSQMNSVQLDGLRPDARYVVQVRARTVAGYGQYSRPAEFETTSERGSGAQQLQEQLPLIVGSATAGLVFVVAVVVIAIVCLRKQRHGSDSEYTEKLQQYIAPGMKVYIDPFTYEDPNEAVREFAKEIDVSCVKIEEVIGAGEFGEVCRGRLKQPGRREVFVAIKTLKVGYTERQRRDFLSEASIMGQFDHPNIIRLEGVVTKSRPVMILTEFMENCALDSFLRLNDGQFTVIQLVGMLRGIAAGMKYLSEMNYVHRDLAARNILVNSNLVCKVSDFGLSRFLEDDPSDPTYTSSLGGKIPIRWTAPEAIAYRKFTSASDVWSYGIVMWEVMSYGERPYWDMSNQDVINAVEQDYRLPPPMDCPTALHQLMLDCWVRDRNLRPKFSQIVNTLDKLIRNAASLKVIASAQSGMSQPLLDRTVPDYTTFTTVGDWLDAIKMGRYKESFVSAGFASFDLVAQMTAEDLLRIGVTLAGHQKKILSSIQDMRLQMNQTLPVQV

Row | SMILES | remaining activity at 1 µM (EPHA3) [%] | % enzyme activity (CK1g2) [%] | remaining activity at 1 µM (PKCnu/PRKD3) [%] | remaining activity at 1 µM (EPHB3) [%]
1 | COc1cc(-c2cncc(-c3ccc(N4CCN(C)CC4)cc3)c2C)cc(F)c1C(N)=O [Compound 26a, 2-Fluoro-6-methoxy-4-(4-methyl-5-(4-(4-methylpiperazin-1-yl)phenyl)pyridin-3-yl)benzamide] | 95.7 | 75.72 | 82.2 | 95.5
2 | COc1cc(-c2cncc(-c3ccc(N4C[C@@H](C)N(C)[C@@H](C)C4)cc3)c2C)cc(F)c1C(N)=O [Compound 26c, 2-Fluoro-6-methoxy-4-(4-methyl-5-(4-((3R,5S)-3,4,5-trimethylpiperazin-1-yl)phenyl)pyridin-3-yl)benzamide] | 101 | 85.61 | 89 | 98.9
